Assay results taken from ChEMBL document CHEMBL1201862, “PubChem BioAssay data set” (2004).
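1) Cells in 96-well plates. 2) Compound, 48 h, 5 concentrations. 3) Linear interpolation between surrounding doses. 4) Unreached endpoint = highest concentration. At the GI50, growth is halved.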 Activity calls are given as the source filed them. Cut-off read from the data, not from the text of the source: active = GI50 up to about 1.1 µM and inactive = higher.

Columns and labels:
Test in all cases: inhibition of tumour cell growth, NCI panel, 48 h
[1] = test system: OVCAR-4
[2] = test system: SR
[3] = test system: SK-MEL-2
[4] = test system: K562
[5] = test system: PC-3
[6] = test system: ACHN
[7] = test system: A549
[8] = test system: HOP-92
[9] = test system: T47D
[10] = test system: MDA-MB-231
[11] = test system: NCI/ADR-RES
[12] = test system: OVCAR-5
[13] = test system: CAKI-1
[14] = test system: MDA-MB-435

Measured: GI50

Cc1ccc(S(=O)(=O)NC(=O)NC(CCCCNC(=N)N)C(=O)O)cc1 (configuration not stated)
inactive: [1] > 100 µM | [2] > 100 µM | [3] > 100 µM | [4] > 100 µM | [5] > 100 µM | [6] > 100 µM | [7] > 100 µM | [8] > 100 µM | [9] > 100 µM | [10] > 100 µM | [11] > 100 µM

C(=C\Nc1ccc(Oc2ccccc2)cc1)/C=N/c1ccc(Oc2ccccc2)cc1
inactive: [1] 17.1 µM | [2] 19.4 µM | [4] 22.5 µM | [5] 15.1 µM | [6] 19.6 µM | [12] 25 µM | [7] 22.1 µM | [8] 24.3 µM | [13] 18.7 µM | [10] 17.1 µM | [11] 16.9 µM | [14] 17.4 µM

O=C(O)C1(Cc2ccc3c(c2)CCC3)Cc2cc3c(cc2C1)CCC3
inactive: [1] > 100 µM | [2] > 100 µM | [3] > 100 µM | [4] > 100 µM | [5] > 100 µM | [6] > 100 µM | [12] > 100 µM | [7] > 100 µM | [8] > 100 µM | [14] > 100 µM

O=CNCNCCO
inactive: [1] > 100 µM | [2] > 100 µM | [3] > 100 µM | [4] > 100 µM | [6] > 100 µM | [12] > 100 µM | [7] > 100 µM | [8] > 100 µM | [13] > 100 µM | [9] > 100 µM | [11] > 100 µM

CN(C)Cc1cc(/N=N/c2ccc(Cl)cc2)ccc1OC(=O)c1ccccc1
inactive: [1] 14.1 µM | [2] 12 µM | [4] 14.4 µM | [5] 15.6 µM | [6] 14.5 µM | [12] 16.8 µM | [7] 3.26 µM | [8] 2.9 µM | [10] 14.1 µM | [11] 17.7 µM | [14] 15.7 µM

CCCOC1OC(CS(=O)(=O)O)C(O)C(O)C1O (configuration not stated)
inactive: [1] > 100 µM | [2] > 100 µM | [3] > 100 µM | [4] > 100 µM | [5] > 100 µM | [12] > 100 µM | [8] > 100 µM | [13] > 100 µM | [9] > 100 µM | [11] > 100 µM | [14] > 100 µM

CC(C)Oc1cccc(N2C(n3ccnc3)=Nc3ccncc3S2(=O)=O)c1
inactive: [1] 14 µM | [2] 3.78 µM | [3] 13.1 µM | [4] 10.2 µM | [5] 10.8 µM | [6] 10 µM | [12] 13.8 µM | [7] 20.4 µM | [8] 12.7 µM | [13] 13.7 µM | [9] 13.1 µM | [11] 21 µM | [14] 11.9 µM

N#C/N=[N+](\[O-])c1ccc(C(=O)O)cc1
inactive: [1] 21 µM | [3] 18.7 µM | [4] 15.4 µM | [5] 17.1 µM | [6] 18.4 µM | [12] 20 µM | [7] > 100 µM | [8] 20.4 µM | [11] 19.3 µM | [14] 17.9 µM

COc1ccc(N(C)C(=O)N(C)c2ccc([N+](=O)[O-])cc2)cc1
inactive: [1] 11.2 µM | [2] 19.5 µM | [3] 14.5 µM | [4] 18.4 µM | [6] > 100 µM | [12] 39.9 µM | [7] 58.1 µM | [8] 25.5 µM | [13] 41.6 µM | [9] 66.4 µM | [10] 45.3 µM | [11] 23.6 µM | [14] 4.21 µM
